One assay addresses T1, lipoxygenase (Rattus norvegicus, UniProt P12527).
T1 construct: the peritoneal cavities were lavaged and the polymorphonuclear leukocytes were recovered; endogenous in cells; host or cells: casein-elicited peritoneal polymorphonuclear leukocytes of Wistar male rats
T1 sequence (P12527 1-673): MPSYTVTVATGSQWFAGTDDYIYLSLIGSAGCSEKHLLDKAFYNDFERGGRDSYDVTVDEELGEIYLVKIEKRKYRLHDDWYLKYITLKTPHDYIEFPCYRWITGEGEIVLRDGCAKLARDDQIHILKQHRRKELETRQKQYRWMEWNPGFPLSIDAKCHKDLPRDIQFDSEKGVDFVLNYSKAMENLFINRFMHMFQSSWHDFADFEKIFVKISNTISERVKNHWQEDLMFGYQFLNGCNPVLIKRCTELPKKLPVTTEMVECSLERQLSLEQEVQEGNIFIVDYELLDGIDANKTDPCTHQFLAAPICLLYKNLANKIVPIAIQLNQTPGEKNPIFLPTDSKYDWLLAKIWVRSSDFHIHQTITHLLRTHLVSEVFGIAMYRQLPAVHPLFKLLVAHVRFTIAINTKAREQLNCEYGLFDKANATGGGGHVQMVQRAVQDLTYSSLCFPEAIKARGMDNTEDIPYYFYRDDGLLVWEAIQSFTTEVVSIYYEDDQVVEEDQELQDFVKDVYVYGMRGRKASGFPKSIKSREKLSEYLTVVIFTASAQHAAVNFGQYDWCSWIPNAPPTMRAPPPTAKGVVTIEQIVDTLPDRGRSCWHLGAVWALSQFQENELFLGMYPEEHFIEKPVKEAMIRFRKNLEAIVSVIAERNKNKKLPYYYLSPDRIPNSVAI
Put plainly: Test of lipoxygenase inhibitory action (production of leukotriene B4 in rat polymorphonuclear leukocytes). The following applies: inhibiting the production of leukotriene B4, calcium ionophore A-23187, EIA, read-out: LTBI IC50. The class given is cell-based. As to the method: Using rat polymorphonuclear leukocytes, a test of the lipoxygenase inhibitory activity of the test compounds was determined the amount of production of leukotriene B4.
Wistar male rats (Japan Clea) were intraperitoneally administered with 12% sodium casein. After 16 hours, the peritoneal cavities were lavaged and the polymorphonuclear leukocytes were recovered. The obtained polymorphonuclear leukocytes were suspended in a phosphate buffer (137 mM NaCl, 3 mM KCl, 8 mM Na2HPO4, 2 mM KH2PO4) (2.5 × 10^5 cells/0.4 ml), then the incubation was carried out at 37°C for 10 minutes the test compound (final concentration 10^-5M) was added and then for 5 minutes after a calcium solution (10 mM CaCl2, 0.86% NaCl) 0.1 ml was added, then 1.25 µl of calcium ionophore (20 µM, A-23187) was added and the reaction started. Five minutes after the addition, 250 µl of methanol was added to stop the reaction. After the reaction was stopped, the resultant mixture was centrifuged for 20 minutes (4°C, 3000 rpm), then the amount of leukotriene B4 in the supernatant was measured by the EIA method (Cayman Co. kit).
As the test compound, the above mentioned Compound 1 to Compound 4, Compound 9 to Compound 11, Compound 22 to Compound 26, Compound 28, Compound 29, compound 32, Compound 33, and Compound 40 to Compound 48 were used.

Another assay has as its target T2, thromboxane synthase (Homo sapiens, UniProt P24557).
T2 construct: containing human platelet microsomes (50 µg protein/ml) and the test compound; from tissue; host or cells: human platelet microsomes
T2 sequence (P24557 1-533): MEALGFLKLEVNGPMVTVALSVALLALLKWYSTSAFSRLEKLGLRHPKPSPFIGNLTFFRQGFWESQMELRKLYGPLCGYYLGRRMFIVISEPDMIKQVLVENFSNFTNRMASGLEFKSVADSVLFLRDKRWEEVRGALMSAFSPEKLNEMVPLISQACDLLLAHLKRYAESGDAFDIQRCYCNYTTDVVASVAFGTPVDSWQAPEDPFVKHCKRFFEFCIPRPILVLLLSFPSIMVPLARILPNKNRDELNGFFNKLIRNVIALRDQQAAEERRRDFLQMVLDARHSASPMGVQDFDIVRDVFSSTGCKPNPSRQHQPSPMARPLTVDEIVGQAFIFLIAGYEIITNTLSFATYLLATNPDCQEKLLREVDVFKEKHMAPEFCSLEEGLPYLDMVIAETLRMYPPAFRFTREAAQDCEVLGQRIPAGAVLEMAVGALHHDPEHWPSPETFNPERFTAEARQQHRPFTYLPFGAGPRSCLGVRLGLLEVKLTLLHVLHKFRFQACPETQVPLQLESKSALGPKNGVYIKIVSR
Put plainly: Test of thromboxane synthase inhibitory action (production of thromboxane B2 in human platelet microsomes). The class given is biochemical. The following applies: suppressing production of thromboxane (thromboxane B2), prostaglandin H2, EIA, read-out: TxSI IC50. As to the method:
Human platelet microsomes were used and a test of the thromboxane synthase inhibitory activity of the compounds was determined by the amount of production of thromboxane B2 as the thromboxane A2 stable metabdite.
[…] A reaction was initiated to added prostaglandin H2 (100 ng/2 µl), and terminated with 1N hydrocloric acid. Then neutralized by 1M Tris-base, and centrifuged at 3000 rpm for 20 minutes. The content of the thromboxane B2 in the supernatent was measured by the EIA method (Cayman Co. kit).
As the test compound, the same compounds as in Test Example 1 were used.

As a reminder, the IC50 is the concentration needed to halve the response being measured. For `NC(=O)N(O)CCCCC/C=C(\c1ccccc1)c1cccnc1` [Compound 1, N-hydroxy-N-[(E)-7-phenyl-7-(3-pyridyl)-6-hepten-1-yl]urea], the IC50 at lipoxygenase is 400 nM; on thromboxane synthase, 0.9 nM.

Take `NC(=O)N(O)CCCCC/C=C(/c1ccccc1)c1cccnc1` [Compound 2, N-hydroxy-N-[(Z)-7-phenyl-7-(3-pyridyl)-6-hepten-1-yl]urea]: the IC50 on lipoxygenase was 60 nM; on thromboxane synthase, 20 nM.

As for `O=C(NC1CCCCC1)N(O)CCCCC/C=C(/c1ccccc1)c1cccnc1` [Compound 3, N'-cyclohexyl-N-hydroxy-N-[(Z)-7-phenyl-7-(3-pyridyl)-6-hepten-1-yl]urea], the IC50 was 50 nM on lipoxygenase and 9 nM at thromboxane synthase.

Consider `NC(=O)N(O)CCC=C(c1cccnc1)c1cccc(C(F)(F)F)c1` [Compound 4, N-hydroxy-N-[4-(3-pyridyl)-4-(3-trifluoromethylphenyl)-3-buten-1-yl] urea], for which the IC50 came out at 2000 nM at lipoxygenase and 6 nM at thromboxane synthase.

On to `O=C(NC1CCCCC1)N(O)CCCC(c1ccccc1)c1cccnc1` (centres unmarked) [Compound 9, N'-cyclohexyl-N-hydroxy-N-[4-phenyl-4-(3-pyridyl)butyl]urea], for which the IC50 on lipoxygenase stood at 1000 nM; at thromboxane synthase, 0.3 nM.

As for `ON(CCCC(c1ccccc1)c1cccnc1)C(=S)NC1CCCCC1` (centres unmarked) [Compound 10, N'-cyclohexyl-N-hydroxy-N-[4-phenyl-4-(3-pyridyl)butyl]thiourea], the IC50 turned out to be 300 nM at lipoxygenase and 0.9 nM on thromboxane synthase.

`COc1cccc(NC(=O)N(O)CCCC(c2ccccc2)c2cccnc2)c1` (centres unmarked) [Compound 11, N-hydroxy-N'-(3-methoxyphenyl)-N-[4-phenyl-4-(3-pyridyl)butyl]urea]: the figures for the IC50 at lipoxygenase and on thromboxane synthase were 500 nM and 2 nM, respectively.

Regarding `NC(=S)N(O)CCCCCC(c1ccccc1)c1cccnc1` (centres unmarked) [Compound 22, N-hydroxy-N-[6-phenyl-6-(3-pyridyl)hexyl]thiourea], the results for the IC50 on lipoxygenase and at thromboxane synthase were 200 nM and 4 nM, respectively.

On to `CCNC(=O)N(O)CCCCCC(c1ccccc1)c1cccnc1` (centres unmarked) [Compound 23, N'-ethyl-N-hydroxy-N-[6-phenyl-6-(3-pyridyl)hexyl]urea], for which the IC50 amounted to 200 nM at lipoxygenase and 6 nM on thromboxane synthase.

For the molecule `NC(=O)N(O)CCCCCCC(c1ccccc1)c1cccnc1` (centres unmarked) [Compound 24, N-hydroxy-N-[7-phenyl-7-(3-pyridyl)heptyl]urea], the IC50 turned out to be 80 nM on lipoxygenase and 10 nM at thromboxane synthase.

As to `O=C(NC1CCCCC1)N(O)CCCCCCC(c1ccccc1)c1cccnc1` (centres unmarked) [Compound 25, N'-cyclohexyl-N-hydroxy-N-[7-phenyl-7-(3-pyridyl)heptyl]urea], the IC50 at lipoxygenase was 60 nM; on thromboxane synthase it was 5 nM.

For the molecule `COc1cccc(NC(=O)N(O)CCCCCCC(c2ccccc2)c2cccnc2)c1` (centres unmarked) [Compound 26, N-hydroxy-N'-(3-methoxyphenyl)-N-[7-phenyl-7-(3-pyridyl)heptyl]urea], the IC50 came out at 40 nM at lipoxygenase and 2 nM at thromboxane synthase.

Consider `CC(CCCCCC(c1ccccc1)c1cccnc1)N(O)C(N)=O` (centres unmarked) [Compound 28, N-hydroxy-N-[1-methyl-7-phenyl-7-(3-pyridyl)heptyl]urea], for which the results for the concentration for half-maximal inhibition (IC50) on lipoxygenase and at thromboxane synthase were 100 nM and 7 nM, respectively.

`ON(CCCCCCCC(c1ccccc1)c1cccnc1)C(=S)Nc1ccccc1` (centres unmarked) [Compound 29, N-hydroxy-N'-phenyl-N-[8-phenyl-8-(3-pyridyl)octyl]thiourea]: the IC50 on lipoxygenase was determined as 40 nM; on thromboxane synthase it was 2 nM.

`CC(CCCCCCCC(c1ccccc1)c1cccnc1)N(O)C(=S)NC1CCCCC1` (centres unmarked) [Compound 32, N'-cyclohexyl-N-hydroxy-N-[1-methyl-9-phenyl-9-(3-pyridyl)nonyl]thiourea]: the IC50 at lipoxygenase stood at 100 nM; at thromboxane synthase, 9 nM.

`NC(=O)N(O)CCCCCCCCCC(c1ccccc1)c1cccnc1` (centres unmarked) [Compound 33, N-hydroxy-N-[10-phenyl-10-(3-pyridyl)decyl]urea]: the IC50 at lipoxygenase and at thromboxane synthase was 10 nM each time.

Consider `NC(=O)N(O)C/C=C/CCCC(c1ccccc1)c1cccnc1` (centres unmarked) [Compound 40, N-hydroxy-N-[(E)-7-phenyl-7-(3-pyridyl)-2-hepten-1-yl]urea], for which the IC50 on lipoxygenase came out at 200 nM; at thromboxane synthase, 30 nM.

For `CC(/C=C/CCCC(c1ccccc1)c1cccnc1)N(O)C(N)=O` (centres unmarked) [Compound 41, N-hydroxy-N-[(E)-1-methyl-7-phenyl-7-(3-pyridyl)-2-hepten-1-yl]urea], the IC50 on lipoxygenase was 200 nM; on thromboxane synthase, 5 nM.

On to `NC(=O)N(O)Cc1cccc(OC(c2ccccc2)c2cccnc2)c1` (stereo not drawn) [Compound 42, N-hydroxy-N-[3-[α-(3-pyridyl)benzyloxy]benzyl]urea], for which the IC50 at lipoxygenase was determined as 300 nM; on thromboxane synthase, 60 nM.

For the molecule `NC(=O)N(O)Cc1ccc(OC(c2ccccc2)c2cccnc2)cc1` (stereo not drawn) [Compound 43, N-hydroxy-N-[4-[α-(3-pyridyl)benzyloxy]benzyl]urea], the IC50 on lipoxygenase was determined as 500 nM; at thromboxane synthase it was 50 nM.

Take `O=C(NC1CCCCC1)N(O)Cc1cccc(OC(c2ccccc2)c2cccnc2)c1` (stereo not drawn) [Compound 44, N'-cyclohexyl-N-hydroxy-N-[3-[α-(3-pyridyl)benzyloxy]benzyl]urea]: the IC50 at lipoxygenase is 200 nM; on thromboxane synthase, 5 nM.

Regarding `COc1cccc(NC(=O)N(O)Cc2cccc(OC(c3ccccc3)c3cccnc3)c2)c1` (stereo not drawn) [Compound 45, N-hydroxy-N'-(3-methoxyphenyl)-N-[3-[α-(3-pyridyl)benzyloxy]benzyl] urea], the results for the half-maximal inhibitory concentration (IC50) at lipoxygenase and at thromboxane synthase were 90 nM and 6 nM, respectively.

Consider `CC(c1cccc(OC(c2ccccc2)c2cccnc2)c1)N(O)C(N)=O` (stereo not drawn) [Compound 46, N-hydroxy-N-[3-[α-(3-pyridyl)benzyloxy]-α-methylbenzyl]urea], for which the IC50 at lipoxygenase is 1000 nM; at thromboxane synthase it was 9 nM.

Turning to `NC(=O)N(O)Cc1cccc(CC(c2ccccc2)c2cccnc2)c1` (stereo not drawn) [Compound 47, N-hydroxy-N-[3-[β-(3-pyridyl)phenethyl]benzyl]urea], the IC50 on lipoxygenase stood at 300 nM; on thromboxane synthase, 20 nM.

In the case of `CC(c1cccc(CC(c2ccccc2)c2cccnc2)c1)N(O)C(N)=O` (stereo not drawn) [Compound 48, N-hydroxy-N-[3-[β-(3-pyridyl)phenethyl]-α-methylbenzyl]urea], the IC50 on lipoxygenase turned out to be 800 nM; at thromboxane synthase it was 30 nM.
